Patent publication US7517885B2, “Substituted [4-(4-phenyl-piperazin-1-yl)-cyclohexyl]-urea compounds” (Janssen Pharmaceutica N.V., priority 2005, dated 2009)

Experiments:
α1a-AR = biological target: T1, α1a-AR (Homo sapiens, UniProt P35348); assay: α1-Adrenergic Receptor Binding Assay (125I-HEAT radio-ligand), α1a subtype; conditions: membranes of COS-7 cells transfected with α1a subtype; 125I-HEAT 50 pM; rt 1 hr
T1 construct: expressed in transfected cells; host or cells: COS-7 cells (membranes)
T1 sequence (P35348 1-455 isoform P35348-4): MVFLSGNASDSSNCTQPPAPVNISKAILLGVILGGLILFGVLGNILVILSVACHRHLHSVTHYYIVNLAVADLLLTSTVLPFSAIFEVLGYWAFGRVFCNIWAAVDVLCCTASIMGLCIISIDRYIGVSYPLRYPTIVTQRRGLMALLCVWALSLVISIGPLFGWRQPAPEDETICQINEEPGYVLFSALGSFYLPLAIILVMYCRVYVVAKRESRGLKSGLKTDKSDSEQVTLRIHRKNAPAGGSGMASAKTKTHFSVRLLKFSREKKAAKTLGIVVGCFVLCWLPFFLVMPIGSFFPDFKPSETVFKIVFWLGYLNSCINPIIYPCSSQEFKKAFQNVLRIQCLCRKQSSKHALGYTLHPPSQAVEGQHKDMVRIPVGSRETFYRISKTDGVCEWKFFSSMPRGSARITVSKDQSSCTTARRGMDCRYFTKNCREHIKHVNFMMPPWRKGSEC
Description: (§1) α1-Adrenergic Receptor Binding Assay
(§2) Preparation of COS Cell Membranes
(§3) Membranes were prepared from COS-7 cells (African Green monkey kidney SV40-transformed cells) that had been transfected with one of the three α1-AR subtypes (Genbank accession number for the α1a subtype: AF013261; Genbank accession number for the α1b subtype: NM000679; Genbank accession number for the α1d subtype: NM000678) using the following method: COS cells from ten 100 mm tissue culture plates were scraped into a 5 mL volume of TE (a mixture of 50 mM Tris-HCl, 5 mM EDTA, pH 7.4). […] The disrupted cells were centrifuged at 1000×g min at 4° C. Supernatants were centrifuged at 34,500×g for 20 min at 4° C. The membrane pellets were suspended in a 2 mL volume of TNE (a mixture of 50 mM Tris-HCl, 5 mM EDTA and 150 mM NaCl at pH 7.4). An aliquot of the membrane suspension was stored at −70° C. until use. The protein concentration was determined using the BioRad “DC” protein assay kit following membrane solubilization with Triton X-100.
(§4) Radio-Ligand Binding Assay
(§5) Triplicate determinations of radio-ligand binding in the presence of increasing concentrations of testing compound were made. The reagents were added to 96-well polypropylene plate wells. […] The plate was incubated at rt for 1 hr. The contents of the wells were filtered through a glass filter (type C) (GF/C) membrane Unifilter plate (Packard Instruments) using the Packard Filtermate cell harvester. The filter plates were dried in a vacuum oven for 30 min at 40° C. 25 μL Microscint 20 liquid scintillation fluid (Packard Instruments) was added to each well. The radioactive content was analyzed in the TopCount microplate scintillation counter (Packard Instruments).

α1b-AR = biological target: T2, α1b-AR (Homo sapiens, UniProt P35368); assay: α1-Adrenergic Receptor Binding Assay (125I-HEAT radio-ligand), α1b subtype; conditions: membranes of COS-7 cells transfected with α1b subtype; 125I-HEAT 50 pM; rt 1 hr
T2 construct: expressed in transfected cells; host or cells: COS-7 cells (membranes)
T2 sequence (P35368 1-520): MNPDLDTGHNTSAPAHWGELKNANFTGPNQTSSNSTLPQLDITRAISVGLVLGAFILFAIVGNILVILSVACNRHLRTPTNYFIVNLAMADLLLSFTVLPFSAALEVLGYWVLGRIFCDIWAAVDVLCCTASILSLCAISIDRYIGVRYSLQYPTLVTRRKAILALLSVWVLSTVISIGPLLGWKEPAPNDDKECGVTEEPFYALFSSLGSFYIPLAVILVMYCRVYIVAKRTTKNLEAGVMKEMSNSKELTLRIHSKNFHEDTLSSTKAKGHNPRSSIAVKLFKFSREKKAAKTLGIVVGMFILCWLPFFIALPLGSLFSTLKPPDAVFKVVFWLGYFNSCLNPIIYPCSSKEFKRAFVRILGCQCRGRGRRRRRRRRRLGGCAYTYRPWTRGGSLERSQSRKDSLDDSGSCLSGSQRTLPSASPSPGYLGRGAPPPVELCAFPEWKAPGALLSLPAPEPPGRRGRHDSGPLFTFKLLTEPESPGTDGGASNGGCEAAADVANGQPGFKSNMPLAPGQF
Description: as §1, §2, §3, §4, §5

α1d-AR = biological target: T3, α1d-AR (Homo sapiens, UniProt P25100); assay: α1-Adrenergic Receptor Binding Assay (125I-HEAT radio-ligand), α1d subtype; conditions: membranes of COS-7 cells transfected with α1d subtype; 125I-HEAT 50 pM; rt 1 hr
T3 construct: expressed in transfected cells; host or cells: COS-7 cells (membranes)
T3 sequence (P25100 1-572): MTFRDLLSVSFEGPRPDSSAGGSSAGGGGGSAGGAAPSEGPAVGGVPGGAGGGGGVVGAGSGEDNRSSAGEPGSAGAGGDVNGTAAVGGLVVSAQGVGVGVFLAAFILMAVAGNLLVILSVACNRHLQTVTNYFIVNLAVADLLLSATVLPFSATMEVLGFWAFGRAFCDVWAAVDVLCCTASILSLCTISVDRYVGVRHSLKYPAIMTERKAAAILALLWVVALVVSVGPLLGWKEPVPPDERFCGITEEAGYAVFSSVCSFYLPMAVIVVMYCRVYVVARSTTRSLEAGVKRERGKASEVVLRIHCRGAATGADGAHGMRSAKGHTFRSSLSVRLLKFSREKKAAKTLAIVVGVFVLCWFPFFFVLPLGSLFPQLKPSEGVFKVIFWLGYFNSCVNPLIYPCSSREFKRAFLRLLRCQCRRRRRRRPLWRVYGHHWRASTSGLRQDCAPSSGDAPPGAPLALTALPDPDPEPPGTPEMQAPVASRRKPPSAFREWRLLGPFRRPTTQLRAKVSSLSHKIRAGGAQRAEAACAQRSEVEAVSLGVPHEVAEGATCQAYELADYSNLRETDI
Description: as §1, §2, §3, §4, §5

[1] = system: α1a and α1d subtypes over the α1b subtype; conditions: cited from earlier work

Compound	Ki (α1a-AR) [nM]	Ki (α1b-AR) [nM]	Ki (α1d-AR) [nM]	selective for the α1a and α1d subtypes over the α1b subtype [1]
CC(C)Oc1ccccc1N1CCN(C2CCC(NC(=O)Nc3ccccc3Oc3ccccc3)CC2)CC1 (mixture of isomers) [Cpd 17, 1-{4-[4-(2-isopropoxy-phenyl)-piperazin-1-yl]-cyclohexyl}-3-(2-phenoxy-phenyl)-urea]	38	430	8.4	–
CC(C)Oc1ccccc1N1CCN([C@H]2CC[C@@H](NC(=O)Nc3ccccc3Cl)CC2)CC1 [Cpd 9, 1-(2-chloro-phenyl)-r-3-{c-4-[4-(2-isopropoxy-phenyl)-piperazin-1-yl]-cyclohexyl}-urea]	47.5	373	46	–
CC(C)Oc1ccccc1N1CCN([C@H]2CC[C@H](NC(=O)Nc3ccc(OC(F)(F)F)cc3)CC2)CC1 [Cpd 32, r-1-{t-4-[4-(2-isopropoxy-phenyl)-piperazin-1-yl]-cyclohexyl}-3-(4-trifluoromethoxy-phenyl)-urea]	181	129	58	–
CC(C)Oc1ccccc1N1CCN(C2CCC(NC(=O)Nc3ccccc3OC(F)(F)F)CC2)CC1 (mixture of isomers) [Cpd 30, 1-{4-[4-(2-isopropoxy-phenyl)-piperazin-1-yl]-cyclohexyl}-3-(2-trifluoromethoxy-phenyl)-urea]	101	604	13.4	–
CC(C)Oc1ccccc1N1CCN([C@H]2CC[C@H](NC(=O)NCc3cccc(F)c3)CC2)CC1 [Cpd 6, 1-(3-fluoro-benzyl)-r-3-{t-4-[4-(2-isopropoxy-phenyl)-piperazin-1-yl]-cyclohexyl}-urea]	10.8	69.6	15.3	–
CCOc1ccccc1OCCN[C@H](C)Cc1ccc(OC)c(S(N)(=O)=O)c1 [Tamsulosin]	–	–	–	about 15 fold
CC(C)Oc1ccccc1N1CCN([C@H]2CC[C@H](NC(=O)Nc3cc(F)cc(F)c3)CC2)CC1 [Cpd 29, 1-(3,5-difluoro-phenyl)-r-3-{t-4-[4-(2-isopropoxy-phenyl)-piperazin-1-yl]-cyclohexyl}-urea]	5.7	52	1	–
CC(C)Oc1ccccc1N1CCN([C@H]2CC[C@@H](NC(=O)Nc3cc(F)ccc3F)CC2)CC1 [Cpd 24, 1-(2,5-difluoro-phenyl)-r-3-{c-4-[4-(2-isopropoxy-phenyl)-piperazin-1-yl]-cyclohexyl}-urea]	25.8	259	52.5	–
CC(C)Oc1ccccc1N1CCN([C@H]2CC[C@@H](NC(=O)NCc3cccc(F)c3)CC2)CC1 [Cpd 5, 1-(3-fluoro-benzyl)-r-3-{c-4-[4-(2-isopropoxy-phenyl)-piperazin-1-yl]-cyclohexyl}-urea]	82	706	62	–
CC(C)Oc1ccccc1N1CCN([C@H]2CC[C@@H](NC(=O)Nc3cc(F)cc(F)c3)CC2)CC1 [Cpd 28, 1-(3,5-difluoro-phenyl)-r-3-{c-4-[4-(2-isopropoxy-phenyl)-piperazin-1-yl]-cyclohexyl}-urea]	108	1050	44	–
CC(C)Oc1ccccc1N1CCN([C@H]2CC[C@H](NC(=O)Nc3ccccc3Cl)CC2)CC1 [Cpd 10, 1-(2-chloro-phenyl)-r-3-{t-4-[4-(2-isopropoxy-phenyl)-piperazin-1-yl]-cyclohexyl}-urea]	11.4	39	3	–
CC(C)Oc1ccccc1N1CCN([C@H]2CC[C@H](NC(=O)Nc3c(Cl)cc(Cl)cc3Cl)CC2)CC1 [Cpd 16, r-1-{t-4-[4-(2-isopropoxy-phenyl)-piperazin-1-yl]-cyclohexyl}-3-(2,4,6-trichloro-phenyl)-urea]	6.4	112	3.6	–
COc1ccc(NC(=O)N[C@H]2CC[C@H](N3CCN(c4ccccc4OC(C)C)CC3)CC2)cc1Cl [Cpd 35, 1-(3-chloro-4-methoxy-phenyl)-r-3-{t-4-[4-(2-isopropoxy-phenyl)-piperazin-1-yl]-cyclohexyl}-urea]	13	108	2.3	–
CC(C)Oc1ccccc1N1CCN([C@H]2CC[C@@H](NC(=O)Nc3c(Cl)cc(Cl)cc3Cl)CC2)CC1 [Cpd 15, r-1-{c-4-[4-(2-isopropoxy-phenyl)-piperazin-1-yl]-cyclohexyl}-3-(2,4,6-trichloro-phenyl)-urea]	51.2	483	25.3	–
